# Results reported in US8889894B2, “Compounds for use in therapy” (Bangor University, priority 2008, dated 2014).
# How the values were obtained:
# alveolar macrophages = experiment: Foaming of mycolic acid treated alveolar macrophages (ORO-stained lung sections); type: in vivo, C57BL/6 mice; conditions: single intratracheal dose of liposomes carrying compound, a week earlier; compared with empty liposomes or liposomes containing compound 1; FIG. 2
# Procedure: (§1) Briefly, the compounds were mixed with phosphatidylcholine (Sigma) in chloroform. The chloroform was evaporated and the lipids recovered in sterile saline. After ultrasound sonication and vortexing, samples of 25 μg mycolic acids/100 μl/mouse were administered intratracheally. A liposome control was prepared similarly, but without the addition of any mycolic acid compound.
# Formation of cholesterol-rich foamy alveolar macrophages upon intratracheal instillation of mycolic acid containing liposomes is indicative of a possible mycolic acid induced suppression of Th2-mediated eosinophilia. In a mouse model of allergic asthma this is mediated by a mechanism involving antigen presentation by these foam cells and the activity of regulatory T-lymphocytes (Korf et al, Am. J. Respir. Crit. Care Med., 174, 1-9, 2006).
# We verified the induction of cholesterol-loaded cells in the lungs of C57BL/6 mice that received a single dose of liposomes carrying compounds a week earlier. The mice were treated with empty liposomes, liposomes containing control compound 1, liposomes containing compound 2 and liposomes containing compound 4. Frozen lung sections were stained with the lipophilic Oil Red O dye (ORO) thereby visualising foam cell intracellular lipid vesicles and counterstained with haematoxylin. […]
# C547BL/6 mice [1] = experiment: Inflammatory cell infiltration to the airways (BAL, flowcytometry); type: in vivo; conditions: 48 hours after intratracheal liposomes; BAL-fluid; compared to empty liposome treatment
# Procedure: as §1
# In order to be considered safe for therapeutic administration, compounds should preferably cause as little local inflammation or resulting tissue changes as possible.
# After 48 hours, mice were sacrificed and a broncho-alveolar lavage (BAL) was performed to measure the airway cell types and numbers by flowcytometry. Increased cell numbers and the appearance of granulocytes (mainly neutrophils) in the BAL-fluid are indicative for cell recruitment to the airways as result of an inflammatory reaction.
# C547BL/6 mice [2] = experiment: Histo-pathological examination of lung tissue (haematoxylin and eosin, score 0-5); type: in vivo; conditions: 48 hours after intratracheal liposomes; lavaged lungs, double-blinded pathologist score; FIG. 4
# Source text: Lavaged lungs were ectomised to allow for histo-pathological examination of the lung tissue. A haematoxylin and eosin staining of the paraffin lung sections was followed by a thorough examination by a skilled pathologist who scored the sections according to the following criteria in a double-blinded manner:
# 1=a minority of the bronchi are surrounded by some infiltrated inflammatory cells
# 2=the majority of the bronchi are surrounded by some infiltrated inflammatory cells
# 3=dispersed are some heavy infiltrates of neutrophils and eosinophils
# 4=a lot of infiltrating neutrophils and eosinophils throughout the entire lung section
# 5=same as 4 with additionally signs of airway remodelling e.g. basal membrane thickening, mucus overproduction and/or smooth muscle cell hyperplasia
# [3] = test system: Th2-driven allergic airway inflammation; experiment: Suppression of allergic airway inflammation in a mouse asthma model (OVA/Alum immunised, OVA-aerosol challenge); type: in vivo; conditions: liposomes intratracheally to OVA/Alum immunised mice, OVA-aerosol challenge after 7 days; flowcytometry (CCR3+); vs empty liposomes; FIG. 5
# Procedure: as §1
# Liposome containing synthetic mycolic acids compounds 5, 6 and 7 were administered intratracheally to mice which had been immunised for the experimental allergen chicken egg ovalbumin (OVA) adjuvanted with Alum (aluminium hydroxide). Following 7 days, the mice were challenged with OVA-aerosol. Th2-driven allergic airway inflammation was apparent in empty liposomes treated animals, from high eosinophil counts in the BAL-fluid by flowcytometry (CCR3^+).
# [4] = test system: CD4+ T-helper (Th) lymphocytes; experiment: mRNA expression patterns by RT-qPCR of CD4+ T-helper lymphocytes from asthmatic mouse lungs; type: in vivo; conditions: compounds in liposomes; with reference to empty liposome treatment; FIG. 7
# Source text: From the previous examples it can be concluded that the synthetic mycolic acids have a significant effect on immune reactivity. The nature of the immune modification appears to be structure dependent. This can be seen from examination of mRNA expression patterns by RT-qPCR of CD4+ T-helper (Th) lymphocytes, isolated from asthmatic mouse lungs after treatment with compounds 6, 8 and 9 formulated into liposomes. The results are shown in FIGS. 7a to e with reference to an empty liposome treatment. All of the synthetic mycolic acid isomers repressed the transcription of the Th2 effector cytokine IL-4 to some degree.
SMILES,scores of ORO positive cells/microscopic field (alveolar macrophages),inflammatory cell infiltration to the airways (C547BL/6 mice [1]),lung tissue changes (C547BL/6 mice [2]),also measured
"CCCCCCCCCCCCCCCCCCCCCCCC[C@@H](C(=O)O)[C@H](O)CCCCCCCCCCCCCCC[C@@H]1C[C@@H]1CCCCCCCCCCCCCCCCCCC(=O)[C@@H](C)CCCCCCCCCCCCCCCCCC (single isomer, unassigned) [Example 3]",,,,melting point: 66 to 68 °C
CCCCCCCCCCCCCCCCCCCCCCCC[C@@H](C(=O)O)[C@H](O)CCCCCCCCCCC[C@H]1CC1CCCCCCCCCCCCCC[C@H]1C[C@H]1CCCCCCCCCCCCCCCCCCCC (some centres unmarked) [Compound 2],significantly higher scores,,,
CCCCCCCCCCCCCCCCCCCC[C@H]1C[C@H]1CCCCCCCCCCCCCCC1C[C@H]1CCCCCCCCCCC[C@@H](O)[C@@H](CC)C(=O)O (some centres unmarked) [Compound 3],,do not,did not cause any significant lung tissue changes,
CCCCCCCCCCCCCCCCCCCCCCCC[C@@H](C(=O)O)[C@H](O)CCCCCCCCCCCCCCCC[C@H]1C[C@@H]1[C@@H](C)CCCCCCCCCCCCCCCCCCC(=O)C(C)CCCCCCCCCCCCCCCCCC (some centres unmarked) [Compound 4],significantly higher scores,do not,did not cause any significant lung tissue changes,
CCCCCCCCCCCCCCCCCCCCCCCC[C@@H](C(=O)O)[C@H](O)CCCCCCCCCCCCCCCCC[C@@H]1CC1CCCCCCCCCCCCCCCC[C@@H](OC)[C@@H](C)CCCCCCCCCCCCCCCCCC (some centres unmarked) [Compound 6],,,,eosinophil count in the BAL-fluid [3]: at least two-fold decreased; FoxP3 (regulatory T-cell) response [4]: especially good in suppressing; Gata-3 transcription (Th2) [4]: especially good in suppressing; IL-4 transcription (Th2 effector cytokine) [4]: especially good in suppressing
